The values below come from PubChem BioAssay AID2305 (GlaxoSmithKline (GSK), 2010).

The assay relates to P. falciparum 3D7 growth, pLDH absorbance. The assay can be described thus: P. falciparum 3D7 growth inhibition, dose response, strain 3D7 (AID 2305).

`O=C(Nc1cccc(-c2ccc(CN3CCC(O)CC3)cc2)c1)c1ccc(Cl)cc1` had an IC50 of 0.96 µM. That is a sub-micromolar value.

The compound `CC(Cc1ccc(C2=CCNCC2)cc1)NCC(O)c1cccc(C(F)(F)F)c1` (configuration not stated) displayed a half-inhibitory concentration (IC50) of 1.57 µM.

Consider `COc1ccc(O)c(CN2CCN(c3cc(C)ccc3C)CC2)c1`, for which the IC50 was determined as 1.01 µM.

`CCCOc1ccc(C(=O)Nc2nonc2-c2ccc(OC)c(OC)c2)cc1` yielded a half-inhibitory concentration (IC50) of 0.99 µM. This IC50 and that of the compound before are within 1.5-fold of each other.

`Cc1cc(C(=O)CN2C(=O)NC(C)(c3ccc4ccccc4c3)C2=O)c(C)n1Cc1ccco1` (configuration not stated) registered an IC50 of 0.66 µM. This IC50 lies about 1.5-fold lower than the previous one.

Consider `O=C(NCCCN1CCN(c2cccc(Cl)c2)CC1)c1ccc(-c2nc3cc(Cl)c(Cl)cc3[nH]2)cc1`, for which the IC50 came out at 0.7 µM.

For the compound `CN(C)CCN(C)Cc1ccc(-c2cccc(NC(=O)c3ccc(Cl)cc3)c2)cc1`, the IC50 turned out to be 0.56 µM. The IC50 values of the last two compounds are within 1.5-fold of each other.

For the compound `CN1CCCN(Cc2ccc(-c3cccc(NC(=O)c4cccc(C#N)c4)c3)cc2)CC1`, the IC50 was 0.65 µM.

As for `CCOc1ccccc1CNc1nccc(NCCc2cn(C)c3ccccc23)n1`, the IC50 is 1.26 µM.

`Cn1cnc2c(Nc3ccncc3)nc(-c3ccc4ccccc4c3)nc21`: the IC50 came to 0.87 µM.

In turn, `O=C(Nc1cccc(-c2ccc(-c3nc4ccc(F)cc4[nH]3)cc2)c1)c1ccncc1` yielded an IC50 of 0.28 µM.

`COc1cccc(-c2cccc(-c3ccc(NC(=O)c4ccc([N+](=O)[O-])o4)cc3)n2)c1` gave an IC50 of 0.52 µM.

Take `COc1ccc(-c2ccc(CNCc3ccsc3)cc2)cc1S(=O)(=O)NCCN1CCCC1`: the 50% inhibitory concentration (IC50) came out at 0.79 µM.

`CC(=O)Nc1ccc(CN(C)C2CCN(c3cc(NC(=O)c4cccc(C)c4)ccn3)CC2)cc1` displayed an IC50 of 0.9 µM.

The compound `Nc1ccc(-c2nc3ccc(-c4ccc5nc(-c6ccc(N)cc6)[nH]c5c4)cc3[nH]2)cc1` came in with an IC50 of 0.13 µM.

As for `CC(C)(C)c1ccccc1SC1=C(O)CC2(CCNCC2)OC1=O`, the IC50 turned out to be 0.88 µM.

In the case of `CN1CCCc2cc(NC(=O)c3cc(-c4ccc(Cl)cc4)cs3)ccc2C1`, the IC50 turned out to be 0.81 µM.

Compound `Nc1nccc(-c2ccc3c(-c4cccc(F)c4)cnc(N)c3c2)n1` displayed an IC50 of 1.02 µM.

Regarding `COc1ccc(CCNCCCCCNCCCc2ccc(Cl)cc2)cc1OC`, the IC50 came out at 0.81 µM.

Compound `COc1ccc(Cn2c(Nc3cccc(C(F)(F)F)c3)nc3cc(C(=O)NCCN4CCCC4)ccc32)cc1Cl` had an IC50 of 0.83 µM. The IC50 values of the last two compounds are within 1.5-fold of each other.

Take `CS(=O)(=O)Nc1ccc(-c2cnc3[nH]cc(-c4ccc(C(=O)O)cc4)c3c2)cc1`: the IC50 is 0.8 µM.

As to `N#Cc1cc(C(=O)Nc2ccccc2)c(N)nc1SCC(=O)Nc1ccc(Br)cc1`, the 50% inhibitory concentration (IC50) was 1.1 µM.

`CCCCCCc1cc2cc(-c3csc(C=Cc4ccccc4)n3)c(=O)oc2cc1O`: the IC50 turned out to be 0.97 µM.

`O=C(Nc1ccc(-c2cccc(-c3nc4ccc(F)cc4[nH]3)c2)cc1)c1cnn2cccnc12` gave a concentration for half-maximal inhibition (IC50) of 0.65 µM.

As to `NC(=Nc1nc(-c2ccccn2)cc2ccccc12)c1cccc(Cl)c1`, the IC50 was found to be 0.31 µM.

Take `COc1cc(C)nc2ccc(NC(=O)COCC(=O)Nc3ccc4nc(C)cc(OC)c4c3)cc12`: the IC50 came to 0.92 µM.

The compound `CCCNCc1ccc(-c2ccc(CN(C(=O)c3nn(-c4ccccc4)nc3C)C3CCOCC3)cc2)nc1` returned an IC50 of 0.14 µM.

`CCNc1c2ccc(Cl)cc2nc2ccc(OC)cc12` yielded an IC50 of 0.84 µM.

Consider `CC(C)n1ncc2c3c(N)nc(N)nc3ccc21`, for which the IC50 was 0.33 µM.

Compound `CNC(=O)c1cnc(Nc2ccc(N3CCN(C)CC3)cc2)nc1Nc1cccc(OC(C)C)c1` returned an IC50 of 0.15 µM.

For `COc1ccc2nccc([C@@H](O)CN3CCC(NCCOc4c(C)cccc4F)CC3)c2c1`, the IC50 was determined as 0.35 µM.

Regarding `N#Cc1c(-c2ccccc2)cn2c1[nH]c(=O)c1ccccc12`, the IC50 was found to be 0.11 µM. Against the preceding compound, the IC50 is about 3.2-fold lower.

Consider `c1ccc([C@H]2CN3CCSC3=N2)cc1`, for which the IC50 worked out at 0.62 µM.

On to `O=C(/C=C/c1ccc(Cl)c(Cl)c1)NCCCCCN1CCC(NC(=O)Nc2ccc(F)c(Cl)c2)CC1`, for which the IC50 amounted to 0.62 µM.

As for `COc1cc(CNC[C@@H](O)[C@H](Cc2ccccc2)NC(=O)c2cc(OC(C)C)cc(N3CCCS3(=O)=O)c2)cc(OC)c1`, the IC50 was found to be 0.8 µM.

With `O=C(N[C@@H](Cc1ccccc1)[C@H](O)CNC1CCCc2ccccc21)c1cc(C2CCCC2)cc(N2CCCC2=O)c1` (some centres not stated), the IC50 was 0.16 µM. This IC50 is about 5-fold lower than that of the compound before.

In turn, `CC(Cc1ccc(Oc2ccccc2)cc1)NCC(O)c1cccc(C(F)(F)F)c1` (configuration not stated) had a half-maximal inhibitory concentration (IC50) of 0.67 µM. Compared with the last compound, the IC50 is about 4.2-fold higher.

Take `CN(C)c1ccc(CN2CCC(NC(=O)c3ccc(-c4cccc(F)c4)s3)CC2)cc1`: the IC50 came out at 1.49 µM.

In the case of `Cc1cccc(-c2c(C)nc(N)nc2N)c1`, the IC50 came out at 1.15 µM.

`CN1CCN(c2ccnc3ccc(NC(=O)Nc4ccc(-c5ccncc5)c(C#N)c4)cc23)CC1` had an IC50 of 0.16 µM. Compared with the last compound, the IC50 is about 7.2-fold lower.

For the compound `CCCCC(=O)Nc1cc(=O)[nH]c2nc(-c3ccc(Cl)cc3)nn12`, the half-maximal inhibitory concentration (IC50) worked out at 0.71 µM. This IC50 is about 4.4-fold higher than that of the compound before.

The compound `CN1CCN(CCCN(Cc2ccc(-c3cccc(CNCc4ccc5c(c4)OCO5)c3)cc2)C(=O)CCC2CCCC2)CC1` gave an IC50 of 1.01 µM.

As to `CN(C)CCCOc1ccc(CNCc2cccc(Oc3ccc(Cl)cc3)c2)cc1`, the IC50 amounted to 0.82 µM.

The compound `CN1CCCC(CN2CCN(Cc3ccc(-c4ccc(-c5nc6ccccc6[nH]5)s4)cc3)CC2)C1` (configuration not stated) came in with an IC50 of 0.13 µM. Against the preceding compound, the IC50 is about 6.3-fold lower.

With `O=[N+]([O-])c1ccc(-c2ccc(C=NNc3nc(Nc4ccccc4)nc(Nc4ccccc4)n3)o2)cc1`, the IC50 was found to be 1.43 µM. Compared with the last compound, the IC50 is about 11-fold higher.

As to `Cc1cc(=O)[nH]c(-n2nc(C)cc2NC(=O)CC(c2ccccc2)c2ccccc2)n1`, the IC50 came to 1.1 µM.

The compound `N#Cc1ccc(NC(=NCc2cccnc2)Nc2ccc(-c3ccccc3)cc2)c(O)c1` gave an IC50 of 0.81 µM. The IC50 values of the last two compounds are within 1.5-fold of each other.

`O=c1cc(-c2cccc(C(F)(F)F)c2)nc(Nc2ccc(Cl)c(Cl)c2)[nH]1` returned an IC50 of 0.76 µM.

In turn, `O=C(Nc1cccc(-c2ccc(CN3CCC(O)CC3)cc2)c1)c1cccc(Cl)c1` showed an IC50 of 0.76 µM.

For `Cc1ccc(C(=O)NC2CC2)cc1-c1ccc2c(cnn2S(=O)(=O)c2ccc(F)cc2)c1`, the IC50 is 0.29 µM.

Compound `CS(=O)(=O)N(c1ccc(F)cc1)c1cc(C(=O)N[C@@H](Cc2ccccc2)[C@H](O)CNCc2cccc(C(F)(F)F)c2)cc(N2CCCC2=O)c1` returned an IC50 of 1.35 µM.

In turn, `CCCOc1cc(OCCC)cc(-c2ccc(C(=O)Nc3ccc4ccc(C)nc4c3)c(=O)[nH]2)c1` had an IC50 of 0.75 µM.

Consider `c1cc(CN2CCc3ccccc3CC2)cc(-c2c[nH]c3nc(NC4CCCC4)ncc23)c1`, for which the IC50 came out at 0.8 µM.

Turning to `CS(=O)(=O)c1cc2c(Nc3ccc(N4CCOCC4)cc3)c(C(N)=O)cnc2cc1Br`, the IC50 was determined as 0.25 µM.

For the compound `c1cc2nc(CCCc3nc4ccc(C5=N[C@H]6CCCC[C@H]6N5)cc4[nH]3)[nH]c2cc1C1=N[C@@H]2CCCC[C@@H]2N1`, the half-inhibitory concentration (IC50) was 1.24 µM.

`Cc1cc(NC(=O)Nc2ccc(I)c(OCCN(C)C)c2)ccc1Br` yielded an IC50 of 0.62 µM.

`CCOC(=O)c1ccc2nc(-c3ccc(C(=O)NC4CCN(Cc5ccccc5)CC4)s3)[nH]c2c1` showed a 50% inhibitory concentration (IC50) of 0.74 µM.

Compound `Nc1nccc2ccc(-c3ccc4ncccc4c3)cc12` yielded an IC50 of 0.11 µM.

`CC(=O)Nc1ncc(C(=O)Nc2cccc(-c3ccc(-c4nc5ccc(C(F)(F)F)cc5[nH]4)cc3)c2)s1` came in with an IC50 of 0.59 µM. This IC50 lies about 5.4-fold higher than the previous one.

The compound `CC(C)c1cc2c(ccc3nc(N)nc(N)c32)o1` displayed an IC50 of 0.09 µM.

For the compound `CC(C)CNCc1ccc(-c2ccc(CNC3CCN(Cc4ccccc4)CC3)cc2)cc1`, the IC50 was 0.56 µM.

Consider `COc1ccc(-c2cccc(NC(=O)c3cccc(Cl)c3)c2)cc1CN1CCC(O)CC1`, for which the IC50 is 0.79 µM. The IC50 values of the last two compounds are within 1.5-fold of each other.

Turning to `COc1ccc2c(c1)CCN(CCN1CCC(CNC(=O)c3ccc(-c4ccc(C#N)cc4)cc3)CC1)C2`, the half-inhibitory concentration (IC50) was found to be 0.62 µM.

Take `O=S(=O)(Nc1cc2c(cc1OCCCN1CCCCC1)CCNCC2)c1ccc(-c2ccc(Cl)cc2)cc1`: the IC50 is 1 µM.

As for `O=C(Nc1ccc2nccc(N3CCN4CCC[C@H]4C3)c2c1)c1ccc(Cl)c(Cl)c1`, the IC50 was determined as 0.34 µM.

`Cc1cccc(C)c1C1CCN(C2CCC(NC(=O)/C=C/c3ccccc3)CC2)CC1` (configuration not stated) had an IC50 of 0.58 µM.

In turn, `CCc1cc(I)c2c(c1)C(NCCCNc1cc(=O)c3ccccc3[nH]1)CCN2` (configuration not stated) registered an IC50 of 0.89 µM.

For `O=[N+]([O-])c1ccc(NC(=NC2CCCc3ccccc32)Nc2ccccc2Br)c(O)c1` (configuration not stated), the IC50 was found to be 0.92 µM.

For the compound `CN(CCCCCNC(=O)/C=C/c1ccc(Cl)c(Cl)c1)CCc1c[nH]c2ccccc12`, the IC50 turned out to be 0.87 µM. The IC50 values of the last two compounds are within 1.5-fold of each other.

For the compound `N#Cc1ccc2c(c1)CN(C1CCC(NC(=O)c3cc(-c4ccc(Cl)cc4)cs3)CC1)CCC2` (configuration not stated), the half-inhibitory concentration (IC50) was 0.96 µM.

`O=C(NCC1COc2ccccc2O1)c1cnc2c(c1)nc(-c1cnc(-c3ccccc3)[nH]1)n2CCSCc1c(F)cccc1Cl` (configuration not stated) registered an IC50 of 0.96 µM.

Regarding `CC(=O)Nc1ccc(CN2CCC(N(C)c3cc(NC(=O)c4ccc(F)cc4)ccn3)CC2)cc1`, the IC50 is 1.12 µM.

Regarding `NC(N)=NC(=O)Nc1cc(Cl)c(F)c(Cl)c1`, the IC50 is 0.64 µM.

Regarding `CS(=O)(=O)NCCCNCc1cccc(-c2ccc(-c3nc4ccc(C(F)(F)F)cc4[nH]3)cc2)c1`, the IC50 stood at 1 µM.

Compound `Nc1nc(N)c2cc(Cc3ccccc3Cl)cnc2n1` yielded an IC50 of 0.11 µM.

`FC(F)(F)c1ccc2nc(-c3ccc(-c4ccc(CNCCN5CCNCC5)cc4)s3)[nH]c2c1` returned an IC50 of 0.91 µM.

Turning to `COc1cc2c(c(Cl)c1OC)CCN(Cc1ccccc1)CC2c1ccc(NC(=O)C(F)(F)F)cc1` (configuration not stated), the IC50 is 0.92 µM. The IC50 values of the last two compounds are within 1.5-fold of each other.

With `C=CCn1c(Sc2ccc(C#N)c([N+](=O)[O-])c2)nnc1-c1ccc(OC)cc1`, the IC50 turned out to be 0.8 µM. The IC50 values of the last two compounds are within 1.5-fold of each other.

`CCCCN(Cc1cc(Cl)c(OCC)c(OC)c1)c1ccc(C(O)(C(F)(F)F)C(F)(F)F)cc1`: the IC50 was 0.91 µM.

In turn, `CCNc1cc(C)nc(Nc2ccc(NC(=O)c3ccc(OC)c(OC)c3)cc2)n1` displayed an IC50 of 1.07 µM. The IC50 values of the last two compounds are within 1.5-fold of each other.

As for `CCCC(C)Nc1nc(C)cc(N[C@@H](Cc2ccccc2)C(=O)NCCc2ccccc2)n1` (some centres not stated), the IC50 amounted to 0.95 µM.

`Cc1cccc(-c2nc3cc(NC(=O)c4ccc([N+](=O)[O-])o4)ccc3o2)c1` gave an IC50 of 0.88 µM.

In turn, `CC1(C)CCC(C)(C)c2c1ccc(C1CCN(CCCCNC(=O)c3ccc(-c4ccc(Cl)cc4)cc3)CC1)c2O` gave a concentration for half-maximal inhibition (IC50) of 0.48 µM.

As to `Cc1ccc(-n2nc(-c3ccccc3)c3cc(C(=O)NCCN)sc32)cc1`, the IC50 was 1.37 µM.

As to `Cc1cc2cc(NC(=O)Nc3ccnc4ccccc34)ccc2n1C`, the IC50 is 1.09 µM.

Take `COc1cc(C(=O)NC2CC(C)(C)NC(C)(C)C2)ccc1-c1cc2cc(Cl)c(Cl)cc2[nH]1`: the half-maximal inhibitory concentration (IC50) came to 0.72 µM.

`COc1ccccc1N1CCN(CCCCNC(=O)c2ccc(NC(=O)c3cc4ccccc4o3)cc2)CC1` gave an IC50 of 0.98 µM.
